# Counter-ions that a name gives are not always drawn. Like-named read-outs stand apart in the source and are kept apart here.
# Columns and labels:
# DAT = molecular target: T1, DAT (Rattus norvegicus, UniProt P23977); experiment: Uptake of [3H]DA by DAT, rat striatum; type: biochemical; conditions: for Ki: [3H]DA uptake, rat striatum
# T1 construct: from tissue; host or cells: rat striatum
# Text: Transporter assays. The affinity of test compounds in binding to rat DAT and in inhibiting monoamine uptake was monitored as described by us previously. […] Rat cerebral cortex was used for assessing uptake of [^3H]serotonin by SERT and hippocampus for uptake of [^3H]NE by NET. […] At lease five triplicate concentrations of each test compound were studied, spaced evenly around the IC50 value. The latter was estimated by nonlinear computer curve-fitting procedures and converted to Ki with the Cheng-Prusoff equation.
# rat DAT = rat DAT (Rattus norvegicus, UniProt P23977); experiment: Rat DAT binding, [3H]Win 35,428, striatal membranes
# Chain of rat DAT (P23977 whole entry): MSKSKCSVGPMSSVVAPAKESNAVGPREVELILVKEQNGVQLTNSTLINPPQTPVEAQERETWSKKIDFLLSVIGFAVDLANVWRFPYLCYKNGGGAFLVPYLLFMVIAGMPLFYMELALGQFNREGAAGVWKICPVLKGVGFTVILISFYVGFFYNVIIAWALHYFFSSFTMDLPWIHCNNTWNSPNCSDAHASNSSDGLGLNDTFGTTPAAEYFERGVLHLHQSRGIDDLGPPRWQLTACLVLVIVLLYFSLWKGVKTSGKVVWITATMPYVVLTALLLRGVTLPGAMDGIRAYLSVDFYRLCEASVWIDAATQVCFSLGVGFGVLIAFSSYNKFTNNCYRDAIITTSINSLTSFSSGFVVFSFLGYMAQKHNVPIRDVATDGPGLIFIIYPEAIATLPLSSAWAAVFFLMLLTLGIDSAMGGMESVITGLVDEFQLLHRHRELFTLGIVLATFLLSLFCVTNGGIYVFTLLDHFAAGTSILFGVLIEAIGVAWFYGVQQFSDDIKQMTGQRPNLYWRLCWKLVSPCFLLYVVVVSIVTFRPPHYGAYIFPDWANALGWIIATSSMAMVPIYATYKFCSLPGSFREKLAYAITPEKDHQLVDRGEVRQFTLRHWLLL
# Protocol: (§1) Briefly, rat striatal membranes were incubated with radioligand and inhibitor for 2 h on ice in a sodium phosphate buffer at a final Na^+ concentration of 30 nM, pH 7.4, at room temperature. The assays were terminated by filtration through glass fiber filtermats (Wallac, Inc., Gaithersburg, Md.), presoaked in 0.05% (v/v) polyethyleneimine, with a MACH3-96 Tomtec harvester (Wallac, Inc.). Filters were assayed for radioactivity in a Microbeta Plus liquid scintillation counter (Wallac, Inc.).
# [1] = molecular target: dopamine transporter (DAT) (Rattus norvegicus, UniProt P23977); experiment: biochemical
# Chain of dopamine transporter (DAT) (P23977 whole entry): as above
# rat SERT = molecular target: T2, rat SERT (Rattus norvegicus, UniProt P31652); experiment: Rat SERT binding, [3H]citalopram, striatal membranes
# T2 construct: from tissue; host or cells: rat striatum (membranes)
# T2 sequence (P31652 whole entry): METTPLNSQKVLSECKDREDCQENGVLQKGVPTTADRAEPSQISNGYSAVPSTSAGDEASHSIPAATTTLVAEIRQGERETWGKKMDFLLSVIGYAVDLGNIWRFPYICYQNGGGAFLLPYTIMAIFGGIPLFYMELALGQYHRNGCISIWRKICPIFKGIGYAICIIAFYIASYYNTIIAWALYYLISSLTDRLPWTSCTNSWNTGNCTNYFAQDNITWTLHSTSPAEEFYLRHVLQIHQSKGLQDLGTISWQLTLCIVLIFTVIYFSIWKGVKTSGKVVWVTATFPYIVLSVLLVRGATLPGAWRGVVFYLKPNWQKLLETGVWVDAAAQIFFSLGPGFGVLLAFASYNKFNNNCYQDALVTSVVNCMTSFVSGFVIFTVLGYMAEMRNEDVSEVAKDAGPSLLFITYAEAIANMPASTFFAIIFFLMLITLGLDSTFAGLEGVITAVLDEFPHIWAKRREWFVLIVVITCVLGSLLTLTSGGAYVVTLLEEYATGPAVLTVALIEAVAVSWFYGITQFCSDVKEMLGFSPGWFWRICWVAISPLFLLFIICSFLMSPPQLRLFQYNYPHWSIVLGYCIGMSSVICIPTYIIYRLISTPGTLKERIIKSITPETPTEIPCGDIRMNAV
# Protocol: as §1
# [2] = molecular target: T3, Norepinephrine (NET) Transporter (Rattus norvegicus, UniProt Q63380); experiment: NET binding, [3H]nisoxetine
# T3 construct: and norepinephrine Transporters in Rat Striatum; from tissue
# T3 sequence (Q63380 1-617): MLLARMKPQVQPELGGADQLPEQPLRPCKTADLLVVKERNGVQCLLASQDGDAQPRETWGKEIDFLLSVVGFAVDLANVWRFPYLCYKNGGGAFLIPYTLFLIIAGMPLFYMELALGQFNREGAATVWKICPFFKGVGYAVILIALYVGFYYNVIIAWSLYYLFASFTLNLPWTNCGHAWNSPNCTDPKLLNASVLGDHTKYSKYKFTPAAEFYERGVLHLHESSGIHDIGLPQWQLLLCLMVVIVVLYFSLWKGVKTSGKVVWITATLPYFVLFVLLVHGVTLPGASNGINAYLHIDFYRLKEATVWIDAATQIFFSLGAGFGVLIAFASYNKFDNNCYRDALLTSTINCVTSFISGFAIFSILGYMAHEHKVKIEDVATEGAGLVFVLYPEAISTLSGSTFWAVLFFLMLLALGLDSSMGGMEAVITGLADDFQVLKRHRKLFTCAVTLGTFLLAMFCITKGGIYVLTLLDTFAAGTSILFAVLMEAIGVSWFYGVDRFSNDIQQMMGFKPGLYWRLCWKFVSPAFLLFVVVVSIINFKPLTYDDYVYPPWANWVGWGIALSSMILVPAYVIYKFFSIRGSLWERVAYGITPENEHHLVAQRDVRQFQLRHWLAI
# [3] = read-out: Ki (DAT), inhibition of DA uptake
# [4] = Ki (DAT), inhibition of DA uptake
# T1 sequence (P23977 whole entry): as the sequence (P23977 whole entry) above
molecule,measurement,setting,value
"O[C@@H](CN[C@H]1CC[C@@H](C(c2ccccc2)c2ccccc2)NC1)Cc1ccccc1 [Example 4c, (R)-1-[(3S,6S)-6-benzhydrylpiperidin-3-ylamino)-3-phenylpropan-2-ol]",Ki,DAT; [3],25 nM
"Fc1ccc(CN2CCC(CCOC(c3ccccc3)c3ccccc3)CC2)cc1F [Example 2, 4-[2-(Diphenylmethoxy)ethyl]-1-[(3,4-difluorophenyl)methyl]piperidine]",SERT/DAT selectivity ratio,rat DAT,122
same,IC50,"rat DAT; read-out: DAT, IC50, Table 1",10.1 ± 0.9 nM
same,IC50,[1],12 ± 1.62 nM
same,IC50,"rat SERT; Table 1, read-out: SERT, IC50",1220 ± 139 nM
"Fc1ccc(C(NCC2CCN(CCc3ccccc3)CC2)c2ccc(F)cc2)cc1 [Example 12, 4-[(Bis(4-fluorophenyl)methylamino)methyl]-1-[2-(phenyl)ethyl]piperidine]",IC50,"rat DAT; read-out: DAT, IC50",65.3 ± 3.2 nM
same,IC50,"rat SERT; Table 1, read-out: SERT, IC50",1100 ± 246 nM
"CS(=O)(=O)Nc1ccc(CN2CCC(CCOC(c3ccccc3)c3ccccc3)CC2)cc1 [Example 6, 4-[2-(Diphenylmethoxy)ethyl]-1-[((4-methylsulfonylamino)phenyl)methyl]piperidine]",IC50,"rat DAT; read-out: DAT, IC50, Table 1",26.6 ± 1.4 nM
same,IC50,[1],9.7 ± 1.2 nM
same,IC50,"rat SERT; Table 1, read-out: SERT, IC50",586 ± 29.2 nM
"FC(F)(F)c1ccc(CN2CCC(CCOC(c3ccccc3)c3ccccc3)CC2)cc1 [Example 3, 4-[2-(Diphenylmethoxy)ethyl]-1-[((4-trifluoromethyl)phenyl)methyl]piperidine]",IC50,"rat DAT; read-out: DAT, IC50",32.1 ± 2.1 nM
same,IC50,"rat SERT; Table 1, read-out: SERT, IC50",2260 ± 144 nM
"Fc1ccc(CN2CCC(CCNC(c3ccccc3)c3ccccc3)CC2)cc1F [Example 8, 4-[2-((Diphenylmethyl)amino)ethyl]-1-[(3,4-difluorophenyl)methyl]piperidine]",IC50,"[2]; Table 1, read-out: NET, IC50",1030 nM
same,IC50,[1],10.7 ± 1.8 nM
same,IC50,"rat SERT; Table 1, read-out: SERT, IC50",1590 ± 160 nM
"CC(NCCC1CCN(Cc2ccc(F)cc2)CC1)c1ccccc1 (stereo not shown) (as salt: oxalate) [Example 14, 4[2-[(1-(phenyl)ethyl)amino]ethyl]-1-[(4-fluorophenyl)methyl]piperidine]",melting point,,172 to 173 °C
"Fc1cccc(CN2CCC(CCOC(c3ccccc3)c3ccccc3)CC2)c1 (as salt: oxalate) [Example 1, 4-[2-(Diphenylmethoxy)ethyl]-1-[(3-fluorophenyl)methyl]piperidine]",melting point,,150 to 151 °C
"OC1CN(Cc2ccc(F)cc2)CCC1CCOC(c1ccccc1)c1ccccc1 (racemic) [Example 16, racemic trans-3-hydroxy-4-[2-diphenylmethoxy)ethyl]-1-[(4-fluorophenyl)methyl]piperidine]",IC50,rat DAT,5.96 ± 1.26 nM
same,IC50,"[2]; Table 5, rat striatum, read-out: NET, IC50, nM [3H]nisoxetine",637 ± 114 nM
same,IC50,rat SERT,1110 nM
"CS(=O)(=O)Nc1ccc(CN2CCC(CCOC(c3ccccc3)c3ccccc3)CC2)cc1 (as salt: oxalate) [Example 6, 4-[2-(Diphenylmethoxy)ethyl]-1-[((4-methylsulfonylamino)phenyl)methyl]piperidine]",melting point,,122 to 124 °C
CN(CC1CCN(Cc2ccc(F)cc2)CC1)CC(c1ccccc1)c1ccccc1 [Example 13],IC50,"rat DAT; read-out: DAT, IC50, Table 1",94 ± 12.5 nM
same,IC50,"rat SERT; Table 1, read-out: SERT, IC50",2520 ± 230 nM
"N#Cc1ccc(CN2CCC(CCOC(c3ccccc3)c3ccccc3)CC2)cc1 [Example 4, 4-[2-(Diphenylmethoxy)ethyl]-1-[(4-cyanophenyl)methyl]piperidine]",SERT/DAT selectivity ratio,rat DAT,615
same,IC50,rat DAT; read-out: IC50 for the dopamine transporter,3.7 nM
same,IC50,[1],4.58 ± 0.8 nM
same,IC50,"rat SERT; read-out: SERT, IC50",2280 ± 470 nM
"OC(CN1CCN2CC1CCC2C(c1ccccc1)c1ccccc1)c1ccc(F)cc1 [Example 7c, (R)-2-((5S,8S)-8-benzhydryl-1,4-diazabicyclo[3.3.1]nonane-2-yl)-1-4-fluorophenyl)ethanol]",Ki,DAT; [4],66.5 nM
"N#Cc1ccc(CN2CCC(CCOC(c3ccccc3)c3ccccc3)CC2)cc1 (as salt: oxalate) [Example 4, 4-[2-(Diphenylmethoxy)ethyl]-1-[(4-cyanophenyl)methyl]piperidine]",melting point,,120 to 121 °C
"O=C1CN(Cc2ccc(F)cc2)CCC1CCOC(c1ccccc1)c1ccccc1 (racemic) (as salt: oxalate) (hydrate or solvate) [Example 18, racemic 3-Keto-4-[2-(diphenylmethoxy)ethyl]-1-[(4-fluorophenyl)methyl]piperidine]",melting point,,104 to 109 °C
"OC(CCN1CCN2CC1CCC2C(c1ccccc1)c1ccccc1)c1ccc(F)cc1 (single isomer, unassigned) [Example 11b]",Ki,DAT; [4],8.63 nM
same,NET/DAT,"DAT; uptake inhibition selectivity, norepinephrine vs dopamine",48.4
same,SERT/DAT,"DAT; uptake inhibition selectivity, serotonin vs dopamine",172
"Fc1ccc(CN2CCC(CCOC(c3ccccc3)c3ccccc3)CC2)cc1F (as salt: oxalate) [Example 2, 4-[2-(Diphenylmethoxy)ethyl]-1-[(3,4-difluorophenyl)methyl]piperidine]",melting point,,158 to 159 °C
"Ic1ccc(CN2CCC(CCOC(c3ccccc3)c3ccccc3)CC2)cc1 (as salt: oxalate) [Example 19, 4-[2-(diphenylmethoxy)ethyl]-1-[(4-iodophenyl)methyl]piperidine]",melting point,,160 to 161 °C
CC(OCCC1CCN(Cc2ccc(F)cc2)CC1)c1ccccc1 (stereo not shown) [4-[((1-phenylethoxy)ethyl]-1-[(4-fluorophenyl)methyl]piperidine],IC50,"rat DAT; read-out: DAT, IC50, Table 1",751 ± 61.6 nM
same,IC50,"rat SERT; Table 1, read-out: SERT, IC50",5860 ± 595 nM
"OC(CCN1CCN2CC1CCC2C(c1ccccc1)c1ccccc1)c1ccc(F)cc1 (single isomer, unassigned) [Example 11a]",Ki,DAT; [4],41.8 nM
"O[C@H](CN[C@H]1CC[C@@H](C(c2ccccc2)c2ccccc2)NC1)Cc1ccccc1 [Example 4d, (S)-1-[(3S,6S)-6-benzhydrylpiperidin-3-ylamino)-3-phenylpropan-2-ol]",Ki,DAT; [3],25.3 nM
"CC(NCCC1CCN(Cc2ccc(F)cc2)CC1)c1ccccc1 (stereo not shown) [Example 14, 4[2-[(1-(phenyl)ethyl)amino]ethyl]-1-[(4-fluorophenyl)methyl]piperidine]",IC50,"rat DAT; read-out: DAT, IC50, Table 1",295 ± 40.9 nM
same,IC50,"rat SERT; Table 1, read-out: SERT, IC50",963 ± 38.5 nM
CN(CC1CCN(Cc2ccc(F)cc2)CC1)CC(c1ccccc1)c1ccccc1 (as salt: oxalate) [Example 13],melting point,,144 to 145 °C
"Oc1cccc(CN2CCC(CCOC(c3ccccc3)c3ccccc3)CC2)c1 [Example 3-OH, 4-[2-(diphenylmethoxy)ethyl]-1-[(3-hydroxyphenyl)methyl]piperidine]",IC50,"rat DAT; read-out: DAT, IC50, Table 1",14.3 ± 3.7 nM
same,IC50,"[2]; Table 1, read-out: NET, IC50",678 ± 13 nM
same,IC50,"rat SERT; Table 1, read-out: SERT, IC50",984 ± 94 nM
"Fc1ccc(CN2CCC(CNOC(c3ccccc3)c3ccccc3)CC2)cc1 (as salt: oxalate) [Example 7, 4-[((2-Diphenylmethoxy)amino)methyl]-1-[(4-fluorophenyl)methyl]piperidine]",melting point,,154 to 155 °C
"O=C(Cc1ccccc1)N1CCC(CCOC(c2ccccc2)c2ccccc2)CC1 [Example 5, 4-[2-(Diphenylmethoxy)ethyl]-1-[(phenylmethyl)carbonyl]piperidine]",IC50,"rat DAT; read-out: DAT, IC50",2160 ± 54 nM
same,IC50,"rat SERT; Table 1, read-out: SERT, IC50",> 1000 nM
"1-((5S,8S)-8-benzhydryl-1,4-diazabicyclo[3.3.1]nonane-2-yl)-3-phenylpropan-2-ol [Example 6a]",Ki,DAT; [3],82.9 nM
"Fc1cccc(CN2CCC(CCOC(c3ccccc3)c3ccccc3)CC2)c1 [Example 1, 4-[2-(Diphenylmethoxy)ethyl]-1-[(3-fluorophenyl)methyl]piperidine]",IC50,"rat DAT; read-out: DAT, IC50, Table 1",23.4 ± 3.8 nM
same,IC50,"rat SERT; Table 1, read-out: SERT, IC50",1150 ± 43.4 nM
CCC(=O)OC1CN(Cc2ccc(F)cc2)CCC1CCOC(c1ccccc1)c1ccccc1 (racemic) [Example 17],IC50,rat DAT,583 ± 81 nM
same,IC50,[2],35800 nM
same,IC50,"rat SERT; Table 5, rat striatum, read-out: SERT, IC50, nM [3H]citalopram",178 nM
"1-((5S,8S)-8-benzhydryl-1,4-diazabicyclo[3.3.1]nonane-2-yl)-3-phenylpropan-2-ol [Example 6b]",Ki,DAT; [3],16.8 nM
c1ccc(CN2CCC(CCNC(c3ccccc3)c3ccccc3)CC2)cc1 [Example 9],IC50,"[2]; Table 1, read-out: NET, IC50",2620 nM
same,IC50,[1],20.6 ± 2.5 nM
same,IC50,"rat SERT; Table 1, read-out: SERT, IC50",1560 ± 208 nM
"Fc1ccc(CN2CCC(CCNC(c3ccccc3)c3ccccc3)CC2)cc1F (as salt: HCl) [Example 8, 4-[2-((Diphenylmethyl)amino)ethyl]-1-[(3,4-difluorophenyl)methyl]piperidine]",melting point,,280 to 281 °C
"Fc1ccc(C(NCC2CCN(CCc3ccccc3)CC2)c2ccc(F)cc2)cc1 (as salt: HCl) [Example 12, 4-[(Bis(4-fluorophenyl)methylamino)methyl]-1-[2-(phenyl)ethyl]piperidine]",melting point,,214 to 215 °C
"CN(CCC1CCN(Cc2ccccc2)CC1)C(c1ccccc1)c1ccccc1 [Example 10, 4-[2-((Diphenylmethyl)-N-methylamino)ethyl]-1-(4-phenylmethyl)piperidine]",IC50,"rat DAT; read-out: DAT, IC50, Table 1",213 ± 3 nM
same,IC50,"rat SERT; Table 1, read-out: SERT, IC50",1660 ± 469 nM
"OC1CN(Cc2ccc(F)cc2)CCC1CCOC(c1ccccc1)c1ccccc1 (racemic) (as salt: oxalate) [Example 16, racemic trans-3-hydroxy-4-[2-diphenylmethoxy)ethyl]-1-[(4-fluorophenyl)methyl]piperidine]",melting point,,143 to 150 °C
"Fc1ccc(CN2CCC(CNCC(c3ccccc3)c3ccccc3)CC2)cc1 (as salt: HCl) [Example 11, 4-[[2-(Diphenyl)ethyl]aminomethyl]-1-[(4-fluorophenyl)methyl]piperidine]",melting point,,126 to 127 °C
"Ic1ccc(CN2CCC(CCOC(c3ccccc3)c3ccccc3)CC2)cc1 [Example 19, 4-[2-(diphenylmethoxy)ethyl]-1-[(4-iodophenyl)methyl]piperidine]",IC50,"rat DAT; read-out: DAT, IC50, Table 1",0.96 ± 0.16 nM
same,IC50,"[2]; Table 1, read-out: NET, IC50",1150 ± 116 nM
same,IC50,"rat SERT; Table 1, read-out: SERT, IC50",2920 ± 432 nM

# From US8211916B2, “N- and O-substituted 4-[2-(diphenylmethoxy)-ethyl]-1-[(phenyl)methyl]piperidine analogs and methods of treating CNS disorders therewith” (Wayne State University, priority 2000, dated 2012)
